According to the NIST ThermoML archive (doi:10.1016/j.fluid.2008.10.003):

Assay: isobaric coefficient of expansion
Details: calorimetric method

CCCCCCO [hexan-1-ol]
isobaric coefficient of expansion
Details	5000 kPa	10000 kPa	15000 kPa	20000 kPa	25000 kPa	30000 kPa	35000 kPa	40000 kPa	45000 kPa	50000 kPa
278.15 K	0.000821 1/K	0.0008 1/K	0.000788 1/K	0.000778 1/K	0.00076 1/K	0.000748 1/K	0.000733 1/K	0.000723 1/K	0.000716 1/K	0.000708 1/K
298.15 K	0.00085 1/K	0.000832 1/K	0.000812 1/K	0.000796 1/K	0.00078 1/K	0.000764 1/K	0.000749 1/K	0.000734 1/K	0.000724 1/K	0.000712 1/K
328.15 K	0.000929 1/K	0.0009 1/K	0.000876 1/K	0.000854 1/K	0.000833 1/K	0.000813 1/K	0.000794 1/K	0.000776 1/K	0.000759 1/K	0.000745 1/K
348.15 K	0.000995 1/K	0.00096 1/K	0.000929 1/K	0.000903 1/K	0.000875 1/K	0.000852 1/K	0.000831 1/K	0.000808 1/K	0.000791 1/K	0.000772 1/K
